Laboratory results reported in patent publication US7199156B2, “Composition and method to treat solid tumors” (priority 2003, dated 2007).
Entries after “also recorded” stand apart in the source; their conditions may differ. Marks after values point to notes of the source that are not given here.

Columns and labels:
[1] = free BAPN; quickly excreted and metabolized; cited from earlier work
[2] = system: malignant mammary adenocarcinoma, code 13762 NM; assay: Single injection of lipophilic lathyrogen/polymeric carrier into mammary carcinoma (Example V); assay type: in vivo, rats; conditions: single intratumoral injection on day 10, in polymeric carrier with unmodified DPA or BAPN
Protocol: In this Example V, Applicant prepared a formulation comprising methylester-DPA.HCl, i.e. Compound II wherein R1 is methyl and wherein R2 is hydrogen, and wherein X is chloride, or Hexyl(amino)-propionitrile, i.e. Compound IV, wherein R4 is hexyl, dispersed in a liquid polymeric carrier.
Applicant dispersed 1 gram of either methylester-DPA.HCl, or hexyl(amino) propionitrile, in combination with about 100 mg of the unmodified DPA or BAPN, respectively, in about 1 ml of the liquid polymer. After thorough mixing, 1 ml volume syringes were filled with Applicant's formulation. All preparations were performed at about 4° C., over crushed ice, and the syringes and needles used were refrigerated prior to loading. The loaded syringes were kept in a refrigerated vessel until used.
The rat model of solid tumor was described by Miller et al. (Proc Nat'l Acad Sci 90,3304,1993). Fischer 344 (F344) inbred female rats were used. The initial body weight was 100 grams, plus or minus about 7 grams. The right flank area was clipped, and the rats were tattooed for identification in the ear. […]
There were 6 rats per group. […] Once the implanted tumor was detectable, the size of that tumor was measured by caliper in two perpendicular directions.
The growth of each tumor was determined every second day. […]

breast adenocarcinome = assay: Single injection into mammary carcinoma, breast adenocarcinome model (Example VI); assay type: in vivo, rats; conditions: single intratumoral injection; FIG. 3
Protocol: In this Example VI, Applicant studied the effect of various treatments on the tumor growth, survival rate, morphology, and metastases in Fisher rats of breast adenocarcinome model.
The method of Example V was used to prepare and inject tumor chunks into the test animals. In Example VI, Applicant used 5 groups of animals with 8 rats per group.
The preparation of the treatment modalities was as follows: • Group 1. Control • Group 2. Polymer Carrier only; used 1.5 ml polymer+1 ml water (polymer used: 38% PLGA-c-PEG in saline) • Group 3. 2 grams Polymeric Carrier+1.038 grams Hexyl ester DPA.HCl+200 mg DPA • Group 4. 800 mg Hexyl ester DPA.HCl+200 mg DPA+2 ml water • Group 5. 1.5 grams Polymeric Carrier+1.5 grams Hexyl (amino)propionitrile+200 mg BAPN Once mixed, all materials were kept on ice until injection time. The various formulations were injected into the tumor using a 23 gauge needle. The retains of Groups 2, 3, and 5, remained pourable after 2–3 hours at 82° F.

B-16 melanoma cells = assay: Repeated injections of DPA into melanoma tumor (Example IV); assay type: in vivo, mice; conditions: for Volume of melanoma tumor: 5 mg DPA in 0.2 ml saline daily, intratumoral, average
Protocol: Female mice, standard inbred C 57/Black, having between about 20 to about 25 g body weight were injected s.c. in the right flank region with 0.1 ml of […] B-16 melanoma cells. These cells are harvested in their end of the log phase growth. These cells come from a tissue culture, using RPMI 1640 medium with 10% FBS enriched with 1-glutamine, penicillin and streptomycin. Cells are harvested by trypsinization, counted, suspended in sterile PBS, and injected in 0.1 ml s.c. in flank region. There were 4 mice per group.
Injection of these melanoma cells resulted within 10 days post injection to a tumor weight of about 1.5 g. Tumor volumes were monitored 3× per week by caliper (MITUYO digital, Smalls Parts Inc., Phoenix, Ariz.) in two perpendicular directions and once per week for body weight. Tumor volume in cubic millimeters is calculated by the formula: (length×(width^2))/2.
Monitoring was continued up to 4 weeks. When the control animals began to die from the tumor burden, the experiment was terminated. Individual animals were terminated once the tumor volume exceeded 20% of mice weight, or when the body weight loss exceeded 20% of the starting body weight.
Table 2 recites the volume, in cubic millimeters, of the melanoma tumor injected daily with 5 mg DPA in 0.2 ml of saline. The treatment was administered once the tumor reached a detectable and measurable size. Average volumes are recited in Table 2. […] There was no effect on body weight or animals behavior.

[3] = Rate of release of lathyrogen from polymeric carrier HYPA(N-30) into saline; assay type: physicochemical; conditions: for Percent Released: from HYPA(N-30) carrier into saline, 37° C.
Protocol: Applicant compared the rate of release from a polymeric carrier of unmodified […] hydrophilic lathyrogen, and a lipophilic D-penicillamine adduct formed by reacting DPA with hexanaldehyde using a published synthetic procedure. Both lathyrogens were dispersed in a polyacrylonitrile (“PAN”) polymer sold in commerce by SKY Polymers, Princeton, N.J. under the tradename HYPA(N-30). The HYPA(N-30) was dissolved in 100% DMSO. Water drowning this DMSO/HYPA(N-30)/lipophilic DPA solution, using a syringe with a 16 gauge needle attached, into saline (0.9% NaCl in water W/v) forms a flexible, solid string. The […] was kept at 37° C., and the incubation jar was minimally shaken. At the times recited in Table 1, an aliquot of the incubation medium was collected and the amount of released D-penicillamine was determined using a reaction between ninhydrin and the free amino groups on the released DPA. […] The ninhydrin reaction requires heating the sample at 100° C., thus freeing the amino group. Table 1 recites the results.

[4] = cited from earlier work
[5] = known properties; cited from earlier work

N#CCCN [BAPN, beta-aminopropionitrile]
duration of activity [1]: no more than 24 hours

CCCCCCNCCC#N [Hexylamino-propionitrile, Hexyl(amino)-propionitrile]
growth of the tumor [2]: markedly inhibited; also recorded: inhibitory effect

COC(=O)[C@H](N)C(C)(C)S.Cl [methylester-DPA.HCl, DPA-Methylester Hydrochloride]
growth of the tumor ([2]; Hydrochloride): even more pronounced inhibition of tumor growth; also recorded: inhibitory effect
tumor growth (breast adenocarcinome): effective

D-Pencillamine [DPA]
effect on body weight or animals behavior (B-16 melanoma cells; daily intratumoral 5 mg DPA): no effect
Volume of melanoma tumor (B-16 melanoma cells; day 0 after detectable tumor was injected): 89 cubic millimeters
Volume of melanoma tumor (B-16 melanoma cells; day 2): 174* cubic millimeters
Volume of melanoma tumor (B-16 melanoma cells; day 5): 806* cubic millimeters
Volume of melanoma tumor (B-16 melanoma cells; day 7): 816* cubic millimeters
Volume of melanoma tumor (B-16 melanoma cells; day 9): 486* cubic millimeters
time over which released from the polymeric carrier ([3]; FIG. 1): a few hours
Percent Released ([3]; Time 0.1 hours): 29%
Percent Released ([3]; Time 2 hours): 89%
Percent Released ([3]; Time 20 hours): 100%
solubility in aqueous media, such as tissue fluid [4]: very soluble
Toxicity In local administration [5]: none
Toxicity in systemic administration [5]: yes
